Laboratory results from ChEMBL document CHEMBL5579895, “Discovery of TYRA-300: First Oral Selective FGFR3 Inhibitor for the Treatment of Urothelial Cancers and Achondroplasia” (J Med Chem, 2024).
Converted amounts (≈) assume the structure as drawn.

Legend:
[1] = target: Fibroblast growth factor receptor 2 (Homo sapiens, UniProt P21802); experiment: Inhibition of human FGFR2 by KINOMEscan analysis
[2] = target: Leukocyte tyrosine kinase receptor (Homo sapiens, UniProt P29376); experiment: Inhibition of human LTK by KINOMEscan analysis
Sequence of Leukocyte tyrosine kinase receptor (P29376 whole entry): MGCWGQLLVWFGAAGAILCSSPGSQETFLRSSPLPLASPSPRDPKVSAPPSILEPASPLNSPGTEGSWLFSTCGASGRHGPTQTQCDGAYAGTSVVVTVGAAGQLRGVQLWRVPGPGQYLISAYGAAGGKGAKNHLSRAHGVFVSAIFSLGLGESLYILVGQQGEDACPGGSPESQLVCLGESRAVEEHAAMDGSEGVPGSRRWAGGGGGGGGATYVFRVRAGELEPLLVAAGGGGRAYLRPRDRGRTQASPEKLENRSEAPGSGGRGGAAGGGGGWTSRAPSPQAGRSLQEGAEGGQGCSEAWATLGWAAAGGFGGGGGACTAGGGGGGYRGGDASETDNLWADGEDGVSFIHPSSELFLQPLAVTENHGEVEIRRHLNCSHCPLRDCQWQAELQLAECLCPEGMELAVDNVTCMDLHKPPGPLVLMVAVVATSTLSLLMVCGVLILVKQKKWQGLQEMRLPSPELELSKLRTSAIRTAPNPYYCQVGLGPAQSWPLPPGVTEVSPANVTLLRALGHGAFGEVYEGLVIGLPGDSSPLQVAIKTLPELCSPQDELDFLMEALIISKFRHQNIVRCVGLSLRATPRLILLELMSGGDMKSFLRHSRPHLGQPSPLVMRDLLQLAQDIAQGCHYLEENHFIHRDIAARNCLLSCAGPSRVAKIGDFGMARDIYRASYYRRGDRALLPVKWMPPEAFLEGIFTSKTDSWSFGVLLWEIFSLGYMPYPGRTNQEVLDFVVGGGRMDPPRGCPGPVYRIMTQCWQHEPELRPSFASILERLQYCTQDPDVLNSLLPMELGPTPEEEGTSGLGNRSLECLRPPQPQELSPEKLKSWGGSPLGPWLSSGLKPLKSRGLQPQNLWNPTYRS

[3] = target: Vascular endothelial growth factor receptor 1 (Homo sapiens, UniProt P17948); experiment: Inhibition of human FLT1 by KINOMEscan analysis
Sequence of Vascular endothelial growth factor receptor 1 (P17948 whole entry): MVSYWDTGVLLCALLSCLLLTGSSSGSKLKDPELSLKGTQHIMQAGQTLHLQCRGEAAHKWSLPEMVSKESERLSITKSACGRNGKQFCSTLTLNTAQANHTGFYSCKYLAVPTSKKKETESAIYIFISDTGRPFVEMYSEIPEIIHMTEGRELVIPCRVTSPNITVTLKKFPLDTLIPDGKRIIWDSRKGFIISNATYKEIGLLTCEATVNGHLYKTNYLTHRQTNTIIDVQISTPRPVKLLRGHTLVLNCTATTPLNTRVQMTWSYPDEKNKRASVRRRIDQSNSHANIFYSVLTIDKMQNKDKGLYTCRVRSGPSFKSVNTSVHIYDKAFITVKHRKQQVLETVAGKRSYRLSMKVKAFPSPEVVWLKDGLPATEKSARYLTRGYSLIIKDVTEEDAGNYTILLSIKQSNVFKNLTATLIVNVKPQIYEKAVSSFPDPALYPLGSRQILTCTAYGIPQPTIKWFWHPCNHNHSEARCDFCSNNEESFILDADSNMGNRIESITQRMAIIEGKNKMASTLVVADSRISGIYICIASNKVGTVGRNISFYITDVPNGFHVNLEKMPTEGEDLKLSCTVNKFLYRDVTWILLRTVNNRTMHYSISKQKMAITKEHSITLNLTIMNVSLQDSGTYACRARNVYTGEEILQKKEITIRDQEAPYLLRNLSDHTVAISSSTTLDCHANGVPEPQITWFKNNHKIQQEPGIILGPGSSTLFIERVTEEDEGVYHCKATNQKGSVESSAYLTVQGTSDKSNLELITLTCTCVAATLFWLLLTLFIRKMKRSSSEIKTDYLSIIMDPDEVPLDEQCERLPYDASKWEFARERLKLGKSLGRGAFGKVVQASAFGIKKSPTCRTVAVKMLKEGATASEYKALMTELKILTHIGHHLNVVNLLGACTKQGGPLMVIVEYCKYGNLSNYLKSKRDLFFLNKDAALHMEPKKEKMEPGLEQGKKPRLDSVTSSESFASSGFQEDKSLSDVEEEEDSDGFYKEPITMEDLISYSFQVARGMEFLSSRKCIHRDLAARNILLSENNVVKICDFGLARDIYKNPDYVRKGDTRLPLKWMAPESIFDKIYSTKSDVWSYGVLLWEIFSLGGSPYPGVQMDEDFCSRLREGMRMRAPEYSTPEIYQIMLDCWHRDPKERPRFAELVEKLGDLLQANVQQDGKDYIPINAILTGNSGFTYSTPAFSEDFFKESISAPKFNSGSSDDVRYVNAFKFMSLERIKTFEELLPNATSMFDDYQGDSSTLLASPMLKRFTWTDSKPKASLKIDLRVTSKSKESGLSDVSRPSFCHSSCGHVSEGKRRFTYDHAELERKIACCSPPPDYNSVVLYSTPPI

RT112/84 [4] = experiment: cells; format: functional, cell-based; settings: Homo sapiens
Description: Inhibition of cell viability in human RT112/84 cells harboring FGFR3/TACC3 fusion incubated for 72 to 120 hrs by Cell Titer Glo assay

[5] = Apparent permeability in MDCK-MDR1 cells; format: ADME, cell-based, Canis lupus familiaris; settings: dog
[6] = Thermodynamic solubility in FaSSGF; format: ADME; settings: read-out: Therm_solubility
[7] = Thermodynamic solubility in FaSSIF; format: ADME; settings: read-out: Therm_solubility
[8] = Volume of distribution in Sprague-Dawley rat at 2 mg/kg, iv measured for 24 hrs by LC-MS/MS analysis; format: ADME, organism-based; settings: in vivo
[9] = Clearance in Sprague-Dawley rat at 2 mg/kg, iv measured for 24 hrs by LC-MS/MS analysis; format: ADME, organism-based; settings: in vivo
[10] = AUC (last) in Sprague-Dawley rat at 10 mg/kg, po measured for 24 hrs by LC-MS/MS analysis; format: ADME, organism-based; settings: in vivo
[11] = Tmax in Sprague-Dawley rat at 10 mg/kg, po measured for 24 hrs by LC-MS/MS analysis; format: ADME, organism-based; settings: in vivo
[12] = Oral bioavailability in Sprague-Dawley rat at 10 mg/kg measured for 24 hrs by LC-MS/MS analysis; format: ADME, organism-based; settings: in vivo
[13] = Volume of distribution in dog at 1 mg/kg, iv measured for 24 hrs by LC-MS/MS analysis; format: ADME, organism-based, Canis lupus familiaris; settings: in vivo
[14] = AUC (last) in dog at 10 mg/kg, po measured for 24 hrs by LC-MS/MS analysis; format: ADME, organism-based, Canis lupus familiaris; settings: in vivo
[15] = Cmax in dog at 10 mg/kg, po measured for 24 hrs by LC-MS/MS analysis; format: ADME, organism-based, Canis lupus familiaris; settings: in vivo
RT112/84 [16] = experiment: animal or person; format: functional, Homo sapiens; settings: Mus musculus, RT112/84, 504 h, route po, time 21 day, read-out: TGI
Description: Antitumor activity against human RT112/84 cells harboring FGFR3/TACC3 fusion xenografted in Balb/c nude mouse model at 12.5 mg/kg, po bid treated for 21 days relative to control

RT112/84 [17] = experiment: animal or person; format: functional, Homo sapiens; settings: Mus musculus, RT112/84, 504 h, route po, time 21 day, read-out: TGI; remark: listed apart in the source
Description: Antitumor activity against human RT112/84 cells harboring FGFR3 V555M mutant xenografted in Balb/c nude mouse model at 12.5 mg/kg, po bid treated for 21 days relative to control

Sequence of Fibroblast growth factor receptor 2 (P21802 whole entry): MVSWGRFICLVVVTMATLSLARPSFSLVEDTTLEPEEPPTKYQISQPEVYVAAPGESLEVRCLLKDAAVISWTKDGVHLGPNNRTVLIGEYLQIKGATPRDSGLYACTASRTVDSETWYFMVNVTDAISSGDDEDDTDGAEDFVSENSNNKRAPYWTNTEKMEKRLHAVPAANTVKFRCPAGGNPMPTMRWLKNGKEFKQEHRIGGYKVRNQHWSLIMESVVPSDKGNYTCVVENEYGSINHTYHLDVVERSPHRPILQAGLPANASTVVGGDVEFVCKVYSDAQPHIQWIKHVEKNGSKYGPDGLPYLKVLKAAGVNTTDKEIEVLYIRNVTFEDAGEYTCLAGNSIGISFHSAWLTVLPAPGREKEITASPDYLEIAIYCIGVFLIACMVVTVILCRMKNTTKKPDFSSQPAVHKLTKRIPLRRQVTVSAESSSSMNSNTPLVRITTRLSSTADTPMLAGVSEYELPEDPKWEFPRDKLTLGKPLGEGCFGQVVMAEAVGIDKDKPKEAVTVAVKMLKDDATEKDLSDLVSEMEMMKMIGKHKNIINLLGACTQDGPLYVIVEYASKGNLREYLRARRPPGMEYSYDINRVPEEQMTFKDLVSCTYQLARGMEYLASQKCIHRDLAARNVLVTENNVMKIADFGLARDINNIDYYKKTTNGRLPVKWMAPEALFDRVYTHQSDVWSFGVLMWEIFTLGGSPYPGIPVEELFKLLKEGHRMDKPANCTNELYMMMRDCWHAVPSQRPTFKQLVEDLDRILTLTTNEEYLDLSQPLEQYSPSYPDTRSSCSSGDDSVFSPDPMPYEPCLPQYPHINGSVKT

With `C[C@@H](Oc1ccc2[nH]nc(-c3ccc(N4CC5(C4)CN(S(C)(=O)=O)C5)nc3)c2c1)c1c(Cl)cncc1Cl` the IC50 [1] was 7 nM, the IC50 [2] was 65 nM and the IC50 [3] was 201 nM. It also gave an IC50 (RT112/84 [4]) of 9 nM, a Papp [5] of 1 ×10⁻⁶ cm/s and a solubility thermodynamic [6] of 34 µM (≈ 19 µg/mL). The solubility thermodynamic [7] was 20 µM (≈ 11.2 µg/mL), the Vd [8] was 2.5 L/kg and the clearance [9] was 17.5 mL/min/kg. It also gave an AUC(0-t) at 24 h [10] of 3360 ng·h/mL, a Tmax [11] of 4 h and a bioavailability [12] of 39%. It also gave a Vd [13] of 1.12 L/kg, an AUC(0-t) at 24 h [14] of 58300 ng·h/mL and a Cmax [15] of 3090 ng/mL. It also gave an inhibition in vivo at 12.5 mg/kg (RT112/84 [16]) of 95% and an inhibition in vivo at 12.5 mg/kg (RT112/84 [17]) of 77%.
